Source: patent US12466779B2, “Method for obtaining oleacein and oleomissional type secoiridoids and for producing respective pharmaceutical preparations” (OMPHAX SA, priority 2019, dated 2025)

Assays:
[1] = water solubility; type: physicochemical; details: in comparison with the aldehydic forms (1)
[2] = test system: HeLa cancer cells; experiment: cytotoxic activity on HeLa cancer cells; type: cell-based; details: read-out: concentration leading to death of 50% of cells
[3] = test system: MCF-7 cancer cells; experiment: cytotoxic activity on MCF-7 cancer cells; type: cell-based; details: read-out: concentration leading to death of 50% of cells
[4] = storage stability of solutions and syrups; type: physicochemical; details: at room temperature; oleacein (1 g) in PEG200 or PEG 400 (5 ml)
Method: Dried olive leaves of Kalamata variety (10 kg) with 1% moisture are cut in the presence of water (100 L) at 25° C. and left in contact for 30 min. The mixture is filtered and the aqueous phase is obtained. The aqueous solution is extracted with dichloromethane (80 L) and the dichloromethane layer is obtained and evaporated under vacuum at 30° C. The residue (100 g) is made up of oleacein with a purity of 95%. The oleacein is mixed with water (10 L) under vigorous stirring for 30 min and transformed into a pure oleaceinediol solution. Alternatively, oleacein (1 g) is mixed with PEG200 or PEG 400 (5 ml) and converted into the stable polyethylene glycol hemiacetal. This solution is stable at room temperature for 12 months. This solution can be diluted to 100 ml with a saturated sugar solution affording a syrup containing 1% oleaceinediol, stable for 15-30 days with anti-inflammatory use.
Fresh olive leaves of Koroneiki variety (100 g) are left in contact with dichloromethane (500 g) at 25° C. for 30 min. The mixture is filtered and the organic phase is evaporated under vacuum. The residue is dissolved in deionized and distilled water at pH=6 (100 ml) under stirring for 24 hours, filtered and a solution of pure oleomissional is obtained. The solution is evaporated or lyophilized and oleomissional (160 mg) is obtained with a purity of >95%. […]

| water solubility with respect to substances (1), (2) [1] | time stable [4] | Substance | IC50 [2] | IC50 [3] |
| --- | --- | --- | --- | --- |
| greatly increased water solubility |  | 5S-(E)-oleaceinediol | 5 µM | 5 µM |
|  | 12 months | polyethylene glycol hemiacetal of oleacein |  |  |
| greatly increased water solubility |  | 5S-(E)-oleomissionadiol | 50 µM | 50 µM |
